Data published in the supplement of paper PMC8671470.
± gives the standard deviation of the averaged measurements.

Assays:
Conditions in all cases: 72 h
BV-173 = system: BV-173
Outline: (§1)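 In 384-well plates holding acoustically pre-printed compounds at five tenfold doses from 1 to 10,000 nM, in duplicate, fifteen myeloid leukaemia cell lines were grown in RPMI 1640 for 72 h at 37 °C with 5% CO2. Luminescent ATP viability was scaled between vehicle and a positive control at 10 µM. The IC50 was then taken from log-logistic dose–response fits with four parameters.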

HEL [1] = system: HEL
Outline: as §1

HL-60 [2] = system: HL-60
Outline: as §1

K-562 [3] = system: K-562
Outline: as §1

KCL-22 [4] = system: KCL-22
Outline: as §1

KG-1 [5] = system: KG-1
Outline: as §1

KU-812 [6] = system: KU-812
Outline: as §1

LAMA-84 = system: LAMA-84
Outline: as §1

ML-2 [7] = system: ML-2
Outline: as §1

MOLM-13 [8] = system: MOLM-13
Outline: as §1

MV4-11 [9] = system: MV4-11
Outline: as §1

Mono-Mac-6 = system: Mono-Mac-6
Outline: as §1

NOMO-1 [10] = system: NOMO-1
Outline: as §1

SHI-1 [11] = system: SHI-1
Outline: as §1

THP-1 [12] = system: THP-1
Outline: as §1

HL-60 [13] = assay: cell viability (% survival relative to DMSO control); higher = less cytotoxic
Outline: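 Four-parameter log-logistic fits in drc and PharmacoGx supplied area under the curve where it is given. Underlying viability came from CellTiter-Glo, normalised to DMSO and proteasome-inhibitor wells, with the proteasome inhibitor at 10 μM. HL-60 cells in RPMI 1640 plus 10% FBS had been rescreened against the full library at five tenfold concentrations of 1–10,000 nM, in duplicate on 384-well plates, with DMSO or 100 nM of one of three metabolic inhibitors, for 72 h at 37 °C, 5% CO2.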

HEL [14] = assay: cell viability (% survival relative to DMSO control, bortezomib = 0%); higher = less cytotoxic
Outline: (§2)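 Fifteen myeloid leukaemia cell lines (10 AML, 5 CML) were seeded at a density titrated to the linear growth range into 384-well plates pre-printed with compounds at 1, 10, 100, 1000 or 10000 nM in duplicate. Plates were incubated for 72 h at 37 °C with 5% CO2. Viability was then read by CellTiter-Glo luminescence. Each value is percent survival averaged over the duplicates, with vehicle set to 100% and a 10 µM positive control to 0%.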

HL-60 [15] = assay: as above
Outline: as §2

K-562 [16] = assay: as above
Outline: as §2

KCL-22 [17] = assay: as above
Outline: as §2

KG-1 [18] = assay: as above
Outline: as §2

KU-812 [19] = assay: as above
Outline: as §2

ML-2 [20] = assay: as above
Outline: as §2

MOLM-13 [21] = assay: as above
Outline: as §2

MV4-11 [22] = assay: as above
Outline: as §2

NOMO-1 [23] = assay: as above
Outline: as §2

SHI-1 [24] = assay: as above
Outline: as §2

THP-1 [25] = assay: as above
Outline: as §2

CCN(CC)C(=S)SSC(=S)N(CC)CC [Disulfiram]
Conditions | IC50 (cell viability) [µM]
BV-173 | 0.778
HEL [1] | > 10
HL-60 [2] | > 10
K-562 [3] | 0.447
KCL-22 [4] | > 10
KG-1 [5] | 0.272
KU-812 [6] | > 10
LAMA-84 | > 10
ML-2 [7] | 0.264
MOLM-13 [8] | > 10
MV4-11 [9] | 7.02
Mono-Mac-6 | 0.171
NOMO-1 [10] | > 10
SHI-1 [11] | 0.0728
THP-1 [12] | 0.0708

cell viability [%], HL-60 [13]
Conditions | 0.001 µM | 0.01 µM | 0.1 µM | 1 µM | 10 µM
co-treatment: AZD3965 100 nM | 104 ± 2.5 | 101 ± 6 | 98.7 ± 8.1 | 96.7 ± 4.4 | 101 ± 1.1
co-treatment: DMSO vehicle | 100.9 ± 0.6 | 100.4 ± 0.73 | 105 ± 3.3 | 94 ± 5.5 | 98.66 ± 0.82
co-treatment: GSK2194069 100 nM | 100 ± 2.3 | 95.7 ± 15 | 102 ± 7 | 93.1 ± 2.8 | 102 ± 2.9
co-treatment: pictilisib 100 nM | 105.2 ± 0.96 | 86.4 ± 37 | 107 ± 2.5 | 71.25 ± 0.41 | 102 ± 15

cell viability [%]
Conditions | 1 nM | 10 nM | 100 nM | 1000 nM | 10000 nM
HEL [14] | 101 | 86.8 | 96.6 | 87.9 | 68
HL-60 [15] | 100 | 104 | 89.2 | 83.3 | 93.7
K-562 [16] | 90.2 | 99.1 | 89.8 | 29.7 | 70.9
KCL-22 [17] | 72.4 | 92.3 | 94.4 | 61.3 | 62.7
KG-1 [18] | 92.7 | 89.8 | 92.7 | 2.8 | 22
KU-812 [19] | 99.7 | 99.3 | 97 | 66 | 66.9
ML-2 [20] | 92 | 106 | 91.4 | 6.36 | 11.6
MOLM-13 [21] | 94.1 | 76.7 | 93.3 | 98.2 | 92.7
MV4-11 [22] | 94.1 | 114 | 98.3 | 88.7 | 53.5
NOMO-1 [23] | 95.3 | 99.4 | 101 | 92 | 88.9
SHI-1 [24] | 87.7 | 92.8 | 44.8 | -0.354 | 65.1
THP-1 [25] | 94.5 | 95.6 | 48.1 | 30.5 | 57.4

c1cc(-c2cnn3cc(-c4ccc(OCCN5CCCCC5)cc4)cnc23)ccn1 [Dorsomorphin]
Conditions | IC50 (cell viability) [µM]
BV-173 | 7.28
HEL [1] | > 10
HL-60 [2] | > 10
K-562 [3] | > 10
KCL-22 [4] | 6.79
KG-1 [5] | > 10
KU-812 [6] | 2.6
LAMA-84 | 6.49
ML-2 [7] | 5.24
MOLM-13 [8] | > 10
MV4-11 [9] | > 10
Mono-Mac-6 | 0.811
NOMO-1 [10] | 6.43
SHI-1 [11] | > 10
THP-1 [12] | > 10

cell viability [%], HL-60 [13]
Conditions | 0.001 µM | 0.01 µM | 0.1 µM | 1 µM | 10 µM
co-treatment: AZD3965 100 nM | 101 ± 4.1 | 101 ± 4.7 | 99.7 ± 1.5 | 99.9 ± 0.26 | 56.2 ± 9.3
co-treatment: DMSO vehicle | 99.8 ± 1.8 | 102 ± 3.1 | 99.9 ± 1.4 | 95.21 ± 0.44 | 63.4 ± 7.4
co-treatment: GSK2194069 100 nM | 108 ± 14 | 102 ± 2.1 | 104 ± 1.1 | 105 ± 5.1 | 63.4 ± 0.95
co-treatment: pictilisib 100 nM | 93.5 ± 8.3 | 99.7 ± 4.2 | 94.8 ± 11 | 82.3 ± 2.3 | 34 ± 3.1

cell viability [%]
Conditions | 1 nM | 10 nM | 100 nM | 1000 nM | 10000 nM
HEL [14] | 87.1 | 105 | 99.4 | 103 | 72.6
HL-60 [15] | 113 | 110 | 94.9 | 97.1 | 93.9
K-562 [16] | 94.2 | 97.4 | 93.3 | 92.1 | 93.5
KCL-22 [17] | 108 | 106 | 102 | 94.6 | 37.7
KG-1 [18] | 94.4 | 117 | 98.8 | 99.8 | 50.8
KU-812 [19] | 91.9 | 97.1 | 97.2 | 85.9 | 1.77
ML-2 [20] | 95.2 | 113 | 96.7 | 88.3 | 44.1
MOLM-13 [21] | 77.6 | 78.5 | 97.5 | 108 | 97.8
MV4-11 [22] | 89.9 | 117 | 97.4 | 99.8 | 89.1
NOMO-1 [23] | 93.2 | 105 | 98.8 | 92.7 | 48.5
SHI-1 [24] | 104 | 102 | 95.6 | 103 | 113
THP-1 [25] | 94.5 | 101 | 101 | 96.2 | 55.6

C[C@H]1c2cccc(O)c2C(=O)C2C(=O)[C@]3(O)C(=O)C(C(N)=O)C(=O)[C@@H](N(C)C)[C@@H]3[C@@H](O)[C@@H]21 (stereo not given in full) [Doxycycline]
Conditions | IC50 (cell viability) [µM]
BV-173 | > 10
HEL [1] | > 10
HL-60 [2] | > 10
K-562 [3] | 9.29
KCL-22 [4] | 8.54
KG-1 [5] | > 10
KU-812 [6] | > 10
LAMA-84 | > 10
ML-2 [7] | 8.51
MOLM-13 [8] | > 10
MV4-11 [9] | > 10
Mono-Mac-6 | > 10
NOMO-1 [10] | > 10
SHI-1 [11] | > 10
THP-1 [12] | > 10

cell viability [%], HL-60 [13]
Conditions | 0.001 µM | 0.01 µM | 0.1 µM | 1 µM | 10 µM
co-treatment: AZD3965 100 nM | 92.6 ± 9.1 | 97.9 ± 4.6 | 99.6 ± 4.2 | 96.7 ± 8.5 | 113 ± 5.6
co-treatment: DMSO vehicle | 100 ± 2.7 | 101 ± 4.3 | 104 ± 2 | 102 ± 1.5 | 114.8 ± 0.59
co-treatment: GSK2194069 100 nM | 93.3 ± 7.2 | 96 ± 4.9 | 99.5 ± 5.7 | 94.8 ± 6.5 | 108.3 ± 0.83
co-treatment: pictilisib 100 nM | 91.7 ± 6.2 | 98.48 ± 0.73 | 99.2 ± 1.6 | 102 ± 3.8 | 96.9 ± 6.5

cell viability [%]
Conditions | 1 nM | 10 nM | 100 nM | 1000 nM | 10000 nM
HEL [14] | 120 | 107 | 90.5 | 108 | 75.3
HL-60 [15] | 123 | 100 | 118 | 111 | 67.4
K-562 [16] | 112 | 97 | 97.3 | 101 | 46.2
KCL-22 [17] | 130 | 69.3 | 93.6 | 109 | 41.6
KG-1 [18] | 106 | 91.7 | 95.9 | 95.1 | 87.9
KU-812 [19] | 111 | 88.3 | 105 | 102 | 74.4
ML-2 [20] | 111 | 103 | 97.9 | 90 | 45.9
MOLM-13 [21] | 124 | 114 | 92.7 | 104 | 74.5
MV4-11 [22] | 110 | 105 | 94.2 | 97 | 50.9
NOMO-1 [23] | 103 | 92 | 104 | 103 | 90.3
SHI-1 [24] | 111 | 98 | 112 | 105 | 90.8
THP-1 [25] | 95 | 95.9 | 100 | 105 | 106
